Reference: article PMC4685510, “A Cell Biologist’s Field Guide to Aurora Kinase Inhibitors” (Frontiers in Oncology, 2015)
Like-named read-outs stand apart in the source and are kept apart here.

Assays:
Experiment in all cases: biochemical
Type in all cases: biochemical
[1] = molecular target: T1, 363 human kinases (including Aurora A/B/C) (Homo sapiens, UniProt P51813); settings: BMX/ETK, [ATP] 50 µM; for remaining activity at 0.1 µM: 100 nM; for remaining activity at 0.1 µM / remaining activity at 0.5 µM: read-out: % Enzyme Activity (relative to DMSO controls)
T1 sequence (P51813 1-675): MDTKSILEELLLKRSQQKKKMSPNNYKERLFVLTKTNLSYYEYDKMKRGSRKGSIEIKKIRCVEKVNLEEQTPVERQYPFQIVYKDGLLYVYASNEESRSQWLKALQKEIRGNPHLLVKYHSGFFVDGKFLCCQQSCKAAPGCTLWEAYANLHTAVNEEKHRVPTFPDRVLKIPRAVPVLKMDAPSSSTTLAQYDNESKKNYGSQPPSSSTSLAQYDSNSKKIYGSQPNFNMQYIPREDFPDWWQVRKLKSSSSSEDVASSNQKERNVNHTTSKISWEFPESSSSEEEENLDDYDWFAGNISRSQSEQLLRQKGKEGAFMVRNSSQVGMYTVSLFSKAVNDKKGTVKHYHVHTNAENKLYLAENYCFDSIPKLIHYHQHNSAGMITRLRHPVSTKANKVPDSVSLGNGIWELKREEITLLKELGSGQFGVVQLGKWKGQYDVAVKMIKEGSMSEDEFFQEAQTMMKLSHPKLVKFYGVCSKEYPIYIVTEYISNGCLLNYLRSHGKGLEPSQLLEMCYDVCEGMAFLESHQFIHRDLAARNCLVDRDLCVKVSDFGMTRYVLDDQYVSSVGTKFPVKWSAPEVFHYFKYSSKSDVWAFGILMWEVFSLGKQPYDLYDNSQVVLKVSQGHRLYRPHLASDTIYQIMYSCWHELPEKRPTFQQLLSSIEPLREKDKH
Source text: (§1) However, the Aurora A/B selectivity ratios derived from our in vitro and in vivo data can be compared to prioritize inhibitors.

[2] = molecular target: 363 human kinases (including Aurora A/B/C) (Homo sapiens, UniProt Q00534); settings: for remaining activity at 0.1 µM: 100 nM; for remaining activity at 0.1 µM / remaining activity at 0.5 µM: read-out: % Enzyme Activity (relative to DMSO controls); for remaining activity at 0.5 µM / % Enzyme Activity (relative to DMSO controls): 500 nM
363 human kinases (including Aurora A/B/C) (Homo sapiens, UniProt Q00534), sequence (Q00534 whole entry): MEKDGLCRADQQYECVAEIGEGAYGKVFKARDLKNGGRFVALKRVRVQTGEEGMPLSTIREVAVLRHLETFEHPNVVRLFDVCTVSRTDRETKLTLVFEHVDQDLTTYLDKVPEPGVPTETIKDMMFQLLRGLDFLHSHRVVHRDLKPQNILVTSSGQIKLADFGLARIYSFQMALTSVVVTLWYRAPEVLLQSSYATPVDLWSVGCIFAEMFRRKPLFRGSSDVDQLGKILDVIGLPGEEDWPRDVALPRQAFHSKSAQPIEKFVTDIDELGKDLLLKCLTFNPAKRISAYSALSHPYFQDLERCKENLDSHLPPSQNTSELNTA
Source text: as §1

[3] = molecular target: T2, 363 human kinases (including Aurora A/B/C) (Homo sapiens, UniProt Q9UBE8); settings: NLK; for remaining activity at 0.1 µM: 100 nM; for remaining activity at 0.1 µM / remaining activity at 0.5 µM: read-out: % Enzyme Activity (relative to DMSO controls)
T2 sequence (Q9UBE8 1-527): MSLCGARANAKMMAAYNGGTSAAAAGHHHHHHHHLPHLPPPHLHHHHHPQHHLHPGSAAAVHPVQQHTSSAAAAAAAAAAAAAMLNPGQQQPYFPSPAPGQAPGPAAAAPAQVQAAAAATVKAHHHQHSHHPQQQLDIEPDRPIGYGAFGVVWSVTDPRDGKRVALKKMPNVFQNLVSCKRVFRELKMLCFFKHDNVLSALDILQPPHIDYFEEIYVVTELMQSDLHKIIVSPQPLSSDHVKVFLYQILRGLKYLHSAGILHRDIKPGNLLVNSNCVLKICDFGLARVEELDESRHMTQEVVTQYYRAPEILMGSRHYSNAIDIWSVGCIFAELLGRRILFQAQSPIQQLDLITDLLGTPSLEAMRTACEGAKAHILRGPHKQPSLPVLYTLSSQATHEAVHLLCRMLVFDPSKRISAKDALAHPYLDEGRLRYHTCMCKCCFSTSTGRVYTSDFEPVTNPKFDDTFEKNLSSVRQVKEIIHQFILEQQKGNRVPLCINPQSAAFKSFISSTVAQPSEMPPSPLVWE
Source text: as §1

[4] = molecular target: 363 human kinases (including Aurora A/B/C) (Homo sapiens, UniProt P49760); settings: CLK2, [ATP] 50 µM; for remaining activity at 0.1 µM: 100 nM; for remaining activity at 0.1 µM / remaining activity at 0.5 µM: read-out: % Enzyme Activity (relative to DMSO controls)
363 human kinases (including Aurora A/B/C) (Homo sapiens, UniProt P49760), sequence (P49760 whole entry): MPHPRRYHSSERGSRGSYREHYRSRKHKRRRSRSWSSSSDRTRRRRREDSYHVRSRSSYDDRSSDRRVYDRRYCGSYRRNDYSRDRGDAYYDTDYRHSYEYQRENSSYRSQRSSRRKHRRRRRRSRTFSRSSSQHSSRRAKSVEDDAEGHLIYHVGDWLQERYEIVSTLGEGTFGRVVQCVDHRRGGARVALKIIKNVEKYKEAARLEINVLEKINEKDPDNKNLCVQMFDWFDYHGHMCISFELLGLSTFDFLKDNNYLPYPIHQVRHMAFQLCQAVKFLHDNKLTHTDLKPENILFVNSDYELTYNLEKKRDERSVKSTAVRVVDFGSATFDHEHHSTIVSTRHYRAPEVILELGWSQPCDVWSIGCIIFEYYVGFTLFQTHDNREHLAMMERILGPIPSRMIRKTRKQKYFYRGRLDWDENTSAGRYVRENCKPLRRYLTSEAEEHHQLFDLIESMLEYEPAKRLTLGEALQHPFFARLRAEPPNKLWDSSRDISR
Source text: as §1

[5] = molecular target: 363 human kinases (including Aurora A/B/C) (Homo sapiens, UniProt Q7KZI7); settings: MARK2/PAR-1Ba; for remaining activity at 0.1 µM: 100 nM; for remaining activity at 0.1 µM / remaining activity at 0.5 µM: read-out: % Enzyme Activity (relative to DMSO controls)
363 human kinases (including Aurora A/B/C) (Homo sapiens, UniProt Q7KZI7), sequence (Q7KZI7 whole entry): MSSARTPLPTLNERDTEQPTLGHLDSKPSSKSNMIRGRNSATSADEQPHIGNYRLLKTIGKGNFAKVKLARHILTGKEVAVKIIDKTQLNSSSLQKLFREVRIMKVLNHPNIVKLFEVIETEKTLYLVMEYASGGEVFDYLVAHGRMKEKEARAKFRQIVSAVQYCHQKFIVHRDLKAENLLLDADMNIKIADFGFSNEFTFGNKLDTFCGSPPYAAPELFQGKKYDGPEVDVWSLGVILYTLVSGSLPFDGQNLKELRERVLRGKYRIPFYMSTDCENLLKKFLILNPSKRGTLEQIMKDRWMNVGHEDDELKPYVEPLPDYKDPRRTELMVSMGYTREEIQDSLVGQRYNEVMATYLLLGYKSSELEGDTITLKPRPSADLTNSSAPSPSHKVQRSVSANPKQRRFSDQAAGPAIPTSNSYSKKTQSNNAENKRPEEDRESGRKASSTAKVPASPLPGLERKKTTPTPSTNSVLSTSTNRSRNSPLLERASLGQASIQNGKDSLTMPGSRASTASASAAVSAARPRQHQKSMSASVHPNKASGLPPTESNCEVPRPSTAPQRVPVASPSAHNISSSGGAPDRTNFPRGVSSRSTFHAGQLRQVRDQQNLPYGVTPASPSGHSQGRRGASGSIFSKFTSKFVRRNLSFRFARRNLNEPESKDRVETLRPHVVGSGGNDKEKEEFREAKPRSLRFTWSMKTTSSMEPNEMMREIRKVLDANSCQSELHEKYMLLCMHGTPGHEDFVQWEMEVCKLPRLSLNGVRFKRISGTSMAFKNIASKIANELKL
Source text: as §1

[6] = molecular target: 363 human kinases (including Aurora A/B/C) (Homo sapiens, UniProt Q15303); settings: ERBB4/HER4, [ATP] 2.5 µM; for remaining activity at 0.1 µM: 100 nM; for remaining activity at 0.1 µM / remaining activity at 0.5 µM: read-out: % Enzyme Activity (relative to DMSO controls)
363 human kinases (including Aurora A/B/C) (Homo sapiens, UniProt Q15303), sequence (Q15303 26-1308): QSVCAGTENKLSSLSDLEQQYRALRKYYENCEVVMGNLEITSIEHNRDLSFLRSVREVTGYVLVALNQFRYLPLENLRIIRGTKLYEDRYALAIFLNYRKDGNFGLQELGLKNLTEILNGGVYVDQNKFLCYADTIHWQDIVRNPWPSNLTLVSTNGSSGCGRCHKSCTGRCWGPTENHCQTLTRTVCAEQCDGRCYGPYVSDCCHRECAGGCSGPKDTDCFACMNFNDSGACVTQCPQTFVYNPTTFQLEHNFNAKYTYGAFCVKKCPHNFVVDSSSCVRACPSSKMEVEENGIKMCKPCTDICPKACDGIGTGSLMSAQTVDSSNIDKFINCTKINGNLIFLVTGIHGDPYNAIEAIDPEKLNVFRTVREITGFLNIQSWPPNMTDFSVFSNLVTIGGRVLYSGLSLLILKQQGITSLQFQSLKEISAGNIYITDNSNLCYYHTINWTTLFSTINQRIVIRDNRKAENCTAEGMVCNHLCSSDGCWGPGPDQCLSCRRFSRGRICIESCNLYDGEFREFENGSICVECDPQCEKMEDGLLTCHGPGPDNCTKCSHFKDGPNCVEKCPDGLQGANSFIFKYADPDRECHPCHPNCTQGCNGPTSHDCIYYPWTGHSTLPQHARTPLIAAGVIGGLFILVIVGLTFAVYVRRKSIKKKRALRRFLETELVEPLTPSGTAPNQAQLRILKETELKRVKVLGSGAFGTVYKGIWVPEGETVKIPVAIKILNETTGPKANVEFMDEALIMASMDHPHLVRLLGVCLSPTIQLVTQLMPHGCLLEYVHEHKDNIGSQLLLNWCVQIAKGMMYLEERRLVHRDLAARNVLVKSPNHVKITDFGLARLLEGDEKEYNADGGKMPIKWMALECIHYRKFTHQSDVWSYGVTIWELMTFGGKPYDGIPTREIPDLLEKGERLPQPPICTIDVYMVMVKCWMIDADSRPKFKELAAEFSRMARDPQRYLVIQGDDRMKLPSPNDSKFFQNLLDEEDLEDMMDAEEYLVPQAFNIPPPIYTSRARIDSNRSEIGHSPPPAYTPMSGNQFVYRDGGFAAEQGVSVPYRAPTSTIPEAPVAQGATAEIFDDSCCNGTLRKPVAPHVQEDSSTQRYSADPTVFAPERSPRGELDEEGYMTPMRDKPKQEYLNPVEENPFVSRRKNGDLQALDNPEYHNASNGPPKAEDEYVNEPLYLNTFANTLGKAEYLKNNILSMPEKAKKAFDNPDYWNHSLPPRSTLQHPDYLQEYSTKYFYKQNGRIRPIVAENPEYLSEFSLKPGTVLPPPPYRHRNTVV
Source text: as §1

[7] = molecular target: T3, 363 human kinases (including Aurora A/B/C) (Homo sapiens, UniProt Q9UL54); settings: TAOK2/TAO1; for remaining activity at 0.1 µM: 100 nM; for remaining activity at 0.1 µM / remaining activity at 0.5 µM: read-out: % Enzyme Activity (relative to DMSO controls)
T3 sequence (Q9UL54 1-1235): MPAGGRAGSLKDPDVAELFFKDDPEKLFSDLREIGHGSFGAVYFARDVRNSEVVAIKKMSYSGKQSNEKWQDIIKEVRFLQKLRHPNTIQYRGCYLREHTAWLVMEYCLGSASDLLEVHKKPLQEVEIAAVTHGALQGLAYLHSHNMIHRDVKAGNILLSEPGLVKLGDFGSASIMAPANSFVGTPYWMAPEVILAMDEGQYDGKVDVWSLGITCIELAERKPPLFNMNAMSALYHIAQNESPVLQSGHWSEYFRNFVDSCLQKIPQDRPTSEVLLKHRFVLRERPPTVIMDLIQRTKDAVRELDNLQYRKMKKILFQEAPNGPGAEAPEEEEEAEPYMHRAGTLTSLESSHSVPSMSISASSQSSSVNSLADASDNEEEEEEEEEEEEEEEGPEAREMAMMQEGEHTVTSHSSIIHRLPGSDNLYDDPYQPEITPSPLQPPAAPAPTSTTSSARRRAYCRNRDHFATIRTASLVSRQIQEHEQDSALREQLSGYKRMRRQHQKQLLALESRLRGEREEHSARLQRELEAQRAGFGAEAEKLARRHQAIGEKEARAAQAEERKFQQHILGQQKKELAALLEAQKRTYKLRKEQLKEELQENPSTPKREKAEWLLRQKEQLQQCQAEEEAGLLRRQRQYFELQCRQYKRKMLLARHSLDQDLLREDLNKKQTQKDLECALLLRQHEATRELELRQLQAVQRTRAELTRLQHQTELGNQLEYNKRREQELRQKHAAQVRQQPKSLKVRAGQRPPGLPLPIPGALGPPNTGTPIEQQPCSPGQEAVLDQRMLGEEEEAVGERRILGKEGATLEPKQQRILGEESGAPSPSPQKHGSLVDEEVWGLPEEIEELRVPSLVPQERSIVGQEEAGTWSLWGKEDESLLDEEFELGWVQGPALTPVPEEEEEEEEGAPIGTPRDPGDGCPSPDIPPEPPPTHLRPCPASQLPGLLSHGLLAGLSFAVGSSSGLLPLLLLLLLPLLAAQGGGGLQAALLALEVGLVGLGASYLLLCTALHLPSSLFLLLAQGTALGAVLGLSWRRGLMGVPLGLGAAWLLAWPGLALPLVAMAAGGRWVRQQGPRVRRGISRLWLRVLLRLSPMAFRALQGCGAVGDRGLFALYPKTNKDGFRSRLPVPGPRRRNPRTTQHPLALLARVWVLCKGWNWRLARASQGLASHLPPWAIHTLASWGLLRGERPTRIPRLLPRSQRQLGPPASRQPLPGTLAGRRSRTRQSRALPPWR
Source text: as §1

## CCn1cc(-c2ccnc3[nH]c(-c4cccc(CN(C)C)c4)cc23)c(-c2ccc(NC(=O)N(C)C)cc2)n1 [GSK1070916]
[1]
  remaining activity at 0.1 µM: 96.1%
[2]; CDK6/cyclin D1, [ATP] 20 µM
  remaining activity at 0.1 µM: 98.8%
[2]; CDK6/cyclin D3, [ATP] 30 µM
  remaining activity at 0.1 µM: 102%
[3]
  remaining activity at 0.1 µM: 95.7%
[4]
  remaining activity at 0.1 µM: 93.6%
[5]
  remaining activity at 0.1 µM: 96.9%
[6]
  remaining activity at 0.1 µM: 87.3%
[7]
  remaining activity at 0.1 µM: 92.6%

## O=C(O)[C@]1(Cc2cccc(Nc3nccs3)n2)CC[C@@H](Oc2cccc(Cl)c2F)CC1 [MK-5108]
[1]
  remaining activity at 0.1 µM: 48.1%
[1]; 500 nM
  remaining activity at 0.5 µM: 14.2%
[2]; CDK6/cyclin D1, [ATP] 20 µM
  remaining activity at 0.1 µM: 90.3%
  remaining activity at 0.5 µM: 96.2%
[2]; CDK6/cyclin D3, [ATP] 30 µM
  remaining activity at 0.1 µM: 89.7%
  remaining activity at 0.5 µM: 95.1%
[3]
  remaining activity at 0.1 µM: 100%
[3]; 500 nM
  remaining activity at 0.5 µM: 94.5%
[4]
  remaining activity at 0.1 µM: 72.9%
[4]; 500 nM
  remaining activity at 0.5 µM: 25.4%
[5]
  remaining activity at 0.1 µM: 96.8%
[5]; 500 nM
  remaining activity at 0.5 µM: 97.8%
[6]
  remaining activity at 0.1 µM: 97.1%
[6]; 500 nM
  remaining activity at 0.5 µM: 77.7%
[7]
  remaining activity at 0.1 µM: 97.5%
[7]; 500 nM
  remaining activity at 0.5 µM: 78.1%

## O=C(c1cccc(Cl)c1F)N1CCN(Cc2cccc(Nc3nccs3)n2)CC1 [MK-8745]
[1]; 500 nM
  % Enzyme Activity (relative to DMSO controls): 88.19%
  remaining activity at 0.5 µM: 90.7%
[2]; CDK6/cyclin D1, [ATP] 20 µM
  % Enzyme Activity (relative to DMSO controls): 94.81%
  remaining activity at 0.5 µM: 96.4%
[2]; CDK6/cyclin D3, [ATP] 30 µM
  % Enzyme Activity (relative to DMSO controls): 93.71%
  remaining activity at 0.5 µM: 95.7%
[3]; 500 nM
  % Enzyme Activity (relative to DMSO controls): 97.25%
  remaining activity at 0.5 µM: 98.5%
[4]; 500 nM
  % Enzyme Activity (relative to DMSO controls): 95.24%
  remaining activity at 0.5 µM: 99%
[5]; 500 nM
  % Enzyme Activity (relative to DMSO controls): 103.22%
  remaining activity at 0.5 µM: 104%
[6]; 500 nM
  % Enzyme Activity (relative to DMSO controls): 93.35%
  remaining activity at 0.5 µM: 94.9%
[7]; 500 nM
  % Enzyme Activity (relative to DMSO controls): 97.14%
  remaining activity at 0.5 µM: 97.6%
